Like-named read-outs stand apart in the source and are kept apart here.
Legend:
[1] = target: ligand binding domain of human FXR (Homo sapiens (Human), UniProt Q96RI1); experiment: FXR ligand binding assay (LanthaScreen TR-FRET, SRC2-2 peptide recruitment); settings: for pEC50: -log EC50, concentration required to produce 50% activation; for Emax: read-out: % Efficacy
[2] = target: human Farnesoid X receptor ligand-binding domain/Gal4 DNA binding domain chimera (Homo sapiens (Human), UniProt Q96RI1); experiment: Cell-based assay of FXR activation (FXR-UAS-bla HEK 293T beta-lactamase reporter); settings: cellular FXR beta-lactamase reporter assay; for EC50: FXR-UAS-bla HEK 293T cells, 16 h, pEC50 = -log EC50; for Emax: HEK-293T, extent of activation relative to GW4064, read-out: % Efficacy
human Farnesoid X receptor ligand-binding domain/Gal4 DNA binding domain chimera, sequence (Q96RI1 262-486, change not shown): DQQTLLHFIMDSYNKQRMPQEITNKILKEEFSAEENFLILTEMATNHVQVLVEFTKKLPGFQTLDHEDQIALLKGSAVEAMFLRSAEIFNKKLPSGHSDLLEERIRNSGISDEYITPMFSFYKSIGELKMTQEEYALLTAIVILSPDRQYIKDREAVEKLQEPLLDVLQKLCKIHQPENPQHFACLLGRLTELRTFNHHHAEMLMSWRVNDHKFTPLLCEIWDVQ
human Farnesoid X receptor ligand-binding domain/Gal4 DNA binding domain chimera, sequence (P04386 1-147 partner): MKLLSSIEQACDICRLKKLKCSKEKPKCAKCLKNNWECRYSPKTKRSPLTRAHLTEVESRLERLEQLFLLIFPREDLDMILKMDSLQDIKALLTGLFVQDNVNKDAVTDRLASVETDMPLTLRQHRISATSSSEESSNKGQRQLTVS
How it was run: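 Readout is cleavage of the CCF4 FRET substrate (409 nm excitation, blue 447 nm signal) by beta-lactamase, expressed under UAS control after a Gal4–human FXR LBD chimera is activated in HEK 293T cells. Compounds were added as 3-fold dilutions for 16 h at 37 °C in 2% charcoal-stripped FBS medium. Curves were fit to a 3-parameter logistic equation to give pEC50, with % activation relative to GW4064.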

[3] = extent of activation relative to GW4064

ligand binding domain of human FXR, sequence (Q96RI1 262-486): as the sequence (Q96RI1 262-486, change not shown) above

SMILES: O=C(O)c1cc(F)c2nc(N3C[C@H]4C[C@@H]3C[C@H]4OC(=O)c3c(-c4c(Cl)cccc4Cl)noc3C3CC3)sc2c1 [Compound I-40, 2-[(1R,4R,5R)-5-[5-cyclopropyl-3-(2,6-dichlorophenyl)-1,2-oxazole-4-carbonyloxy]-2-azabicyclo[2.2.1]heptan-2-yl]-4-fluoro-1,3-benzothiazole-6-carboxylic Acid]
- pEC50 [1]: >4.5
- EC50 [2]: < 31600 nM

SMILES: Cc1cccc(Cl)c1-c1noc(C2CC2)c1CO[C@@H]1C[C@@H]2C[C@H]1CN2c1nc2c(C)cc(C(=O)O)cc2s1 [Compound I-269]
- pEC50 [1]: 8.5
- Emax [1, 3]: 137%
- Emax [2]: 106%
- EC50 [2]: 0.631 nM

SMILES: O=C(NS(=O)(=O)C1CC1)c1cnc(N2C[C@@H]3C[C@H]2C[C@H]3OCc2c(-c3c(Cl)cccc3Cl)noc2C2CC2)c(F)c1 [Compound I-207, 6-((1S,4S,5R)-5-((5-cyclopropyl-3-(2,6-dichlorophenyl)isoxazol-4-yl)methoxy)-2-azabicyclo[2.2.1]heptan-2-yl)-N-(cyclopropylsulfonyl)-5-fluoronicotinamide]
- pEC50 [1]: 8.6
- Emax [1, 3]: 152%
- Emax [2]: 104%
- EC50 [2]: 3.98 nM

SMILES: O=C(O)c1cc(F)c2nc(N3C[C@@H]4C[C@H]3C[C@H]4OCc3c(-c4ccccc4C(F)(F)F)noc3C3CC3)sc2c1 [Compound I-19, 2-[(1S,4S,5R)-5-([5-cyclopropyl-3-[2-(trifluoromethyl)phenyl]-1,2-oxazol-4-yl]methoxy)-2-azabicyclo[2.2.1]heptan-2-yl]-4-fluoro-1,3-benzothiazole-6-carboxylic Acid]
- pEC50 [1]: 8
- Emax [1, 3]: 178%
- Emax [2]: 114%
- EC50 [2]: 2 nM

SMILES: O=C(O)Cc1ccc(N2C[C@@H]3C[C@H]2C[C@H]3OCc2c(-c3c(Cl)cccc3Cl)noc2C2CC2)cc1 [Compound I-146, 2-{4-[(1S,4S,5R)-5-{[5-cyclopropyl-3-(2,6-dichlorophenyl)-1,2-oxazol-4-yl]methoxy}-2-azabicyclo[2.2.1]heptan-2-yl]phenyl}acetic Acid]
- pEC50 [1]: 7.9
- Emax [1, 3]: 134%
- Emax [2]: 101%
- EC50 [2]: 7.94 nM

SMILES: O=C(NS(=O)(=O)C1CC1)c1ccc([N+]2([O-])C[C@@H]3C[C@H]2C[C@H]3OCc2c(-c3c(Cl)cccc3Cl)noc2C2CC2)cc1 (stereo partly drawn) [Compound I-234, (1S,4S,5R)-2-{4-[(cyclopropanesulfonyl)carbamoyl]phenyl}-5-{[5-cyclopropyl-3-(2,6-dichlorophenyl)-1,2-oxazol-4-yl]methoxy}-2-azabicyclo[2.2.1]heptan-2-ium-2-olate]
- pEC50 [1]: 8.1
- Emax [1, 3]: 146%
- Emax [2]: 102%
- EC50 [2]: 1.58 nM

SMILES: O=C(CCc1ccc(N2C[C@@H]3C[C@H]2C[C@H]3OCc2c(-c3c(F)cccc3Cl)noc2C2CC2)c(F)c1)NS(=O)(=O)C1CCOCC1 [Compound I-235, 3-{4-[(1S,4S,5R)-5-{[3-(2-chloro-6-fluorophenyl)-5-cyclopropyl-1,2-oxazol-4-yl]methoxy}-2-azabicyclo[2.2.1]heptan-2-yl]-3-fluorophenyl}-N-(oxane-4-sulfonyl)propanamide]
- pEC50 [1]: 8.2
- Emax [1, 3]: 176%
- Emax [2]: 94%
- EC50 [2]: 3.98 nM

SMILES: O=C(NCc1nn[nH]n1)c1ccc(N2C[C@@H]3C[C@H]2C[C@H]3OCc2c(-c3c(Cl)cccc3Cl)noc2C2CC2)cc1 [Compound I-164, 4-[(1S,4S,5R)-5-{[5-cyclopropyl-3-(2,6-dichlorophenyl)-1,2-oxazol-4-yl]methoxy}-2-azabicyclo[2.2.1]heptan-2-yl]-N-(2H-1,2,3,4-tetrazol-5-ylmethyl)benzamide]
- pEC50 [1]: 9.7
- Emax [1, 3]: 148%
- Emax [2]: 118%
- EC50 [2]: 79.4 nM

SMILES: O=C(O)c1cc(OC(F)(F)F)c2nc(N3C[C@@H]4C[C@H]3C[C@H]4OC(=O)c3c(-c4c(Cl)cccc4Cl)noc3C3CC3)sc2c1 [Compound I-6]
- pEC50 [1]: 7.7
- Emax [1, 3]: 173%
- Emax [2]: 112%
- EC50 [2]: 3.98 nM

SMILES: O=C(NS(=O)(=O)C1CC1)c1cc(F)c2nc(N3C[C@@H]4C[C@H]3C[C@H]4OCc3c(-c4c(Cl)cccc4Cl)noc3C3CC3)sc2c1 [Compound I-30, N-(cyclopropanesulfonyl)-2-[(1S,4S,5R)-5-{[5-cyclopropyl-3-(2,6-dichlorophenyl)-1,2-oxazol-4-yl]methoxy}-2-azabicyclo[2.2.1]heptan-2-yl]-4-fluoro-1,3-benzothiazole-6-carboxamide]
- pEC50 [1]: 8.6
- Emax [1, 3]: 160%
- Emax [2]: 114%
- EC50 [2]: 2.51 nM

SMILES: O=C(O)c1cc(OC2CC2)c2nc(N3C[C@@H]4C[C@H]3C[C@H]4OCc3c(-c4c(Cl)cccc4Cl)noc3C3CC3)sc2c1 [Compound I-259, 4-cyclopropoxy-2-[(1S,4S,5R)-5-{[5-cyclopropyl-3-(2,6-dichlorophenyl)-1,2-oxazol-4-yl]methoxy}-2-azabicyclo[2.2.1]heptan-2-yl]-1,3-benzothiazole-6-carboxylic Acid]
- pEC50 [1]: 8.5
- Emax [1, 3]: 124%
- Emax [2]: 114%
- EC50 [2]: 0.1 nM

SMILES: O=C(O)c1cc(C2CCOCC2)c2nc(N3C[C@@H]4C[C@H]3C[C@H]4OCc3c(-c4c(F)cccc4Cl)noc3C3CC3)sc2c1 [Compound I-264, 2-((1S,4S,5R)-5-((3-(2-chloro-6-fluorophenyl)-5-cyclopropylisoxazol-4-yl)methoxy)-2-azabicyclo[2.2.1]heptan-2-yl)-4-(tetrahydro-2H-pyran-4-yl)benzo[d]thiazole-6-carboxylic acid]
- pEC50 [1]: 8.5
- Emax [1, 3]: 142%
- Emax [2]: 105%
- EC50 [2]: 0.631 nM

SMILES: Cc1cccc(Cl)c1-c1noc(C2CC2)c1CO[C@@H]1C[C@@H]2C[C@H]1CN2c1ccc(CCC(=O)O)cc1F [Compound I-159, 3-{4-[(1S,4S,5R)-5-{[3-(2-chloro-6-methylphenyl)-5-cyclopropyl-1,2-oxazol-4-yl]methoxy}-2-azabicyclo[2.2.1]heptan-2-yl]-3-fluorophenyl}propanoic Acid]
- pEC50 [1]: 8.2
- Emax [1, 3]: 144%
- Emax [2]: 100%
- EC50 [2]: 1.58 nM

SMILES: O=C(NS(=O)(=O)C1CCCCC1)c1ccc(N2C[C@@H]3C[C@H]2C[C@H]3OCc2c(-c3c(Cl)cccc3Cl)noc2C2CC2)cc1 [Compound I-181, N-(cyclohexanesulfonyl)-4-[(1S,4S,5R)-5-{[5-cyclopropyl-3-(2,6-dichlorophenyl)-1,2-oxazol-4-yl]methoxy}-2-azabicyclo[2.2.1]heptan-2-yl]benzamide]
- pEC50 [1]: 8.8
- Emax [1]: 166%
- Emax [2]: 110%
- EC50 [2]: 0.0631 nM

SMILES: O=C(O)c1ccc(N2C[C@@H]3C[C@H]2C[C@H]3OCc2c(-c3c(F)cccc3Cl)noc2C2CC2)c(F)c1 [Compound I-119, 4-[(1S,4S,5R)-5-{[3-(2-chloro-6-fluorophenyl)-5-cyclopropyl-1,2-oxazol-4-yl]methoxy}-2-azabicyclo[2.2.1]heptan-2-yl]-3-fluorobenzoic Acid]
- pEC50 [1]: 8.7
- Emax [1, 3]: 145%
- Emax [2]: 104%
- EC50 [2]: 0.631 nM

SMILES: O=C(O)c1cc(F)c2nc(N3C[C@H]4C[C@@H]3C[C@@H]4OCc3c(-c4c(Cl)cccc4Cl)noc3C3CC3)sc2c1 [Compound I-39, 2-[(1R,4R,5S)-5-{[5-cyclopropyl-3-(2,6-dichlorophenyl)-1,2-oxazol-4-yl]methoxy}-2-azabicyclo[2.2.1]heptan-2-yl]-4-fluoro-1,3-benzothiazole-6-carboxylic Acid]
- pEC50 [1]: 7.8
- Emax [1, 3]: 96%
- Emax [2]: 105%
- EC50 [2]: 50.1 nM

SMILES: O=C(NS(=O)(=O)CC1CCOC1)c1ccc(N2C[C@@H]3C[C@H]2C[C@H]3OCc2c(-c3c(Cl)cccc3Cl)noc2C2CC2)cc1 (stereo partly drawn) [Compound I-186, 4-((1S,4S,5R)-5-((5-cyclopropyl-3-(2,6-dichlorophenyl)isoxazol-4-yl)methoxy)-2-azabicyclo[2.2.1]heptan-2-yl)-N-(((tetrahydrofuran-3-yl)methyl)sulfonyl)benzamide]
- pEC50 [1]: 8.9
- Emax [1, 3]: 134%
- Emax [2]: 107%
- EC50 [2]: 0.158 nM

SMILES: O=C(O)c1ccc(N2C[C@H]3C[C@@H]2C[C@@H]3OCc2c(-c3c(Cl)cccc3Cl)noc2C2CC2)cc1 [Compound I-132]
- Emax [1, 3]: 98%
- EC50 [2]: < 316 nM

SMILES: O=C(NS(=O)(=O)C1CC1)c1ccc(N2C[C@@H]3C[C@H]2C[C@H]3OCc2c(-c3c(Cl)cccc3Cl)noc2C2CC2)nc1 [Compound I-205, 6-((1S,4S,5R)-5-((5-cyclopropyl-3-(2,6-dichlorophenyl)isoxazol-4-yl)methoxy)-2-azabicyclo[2.2.1]heptan-2-yl)-N-(cyclopropylsulfonyl)nicotinamide]
- pEC50 [1]: 8.4
- Emax [1, 3]: 142%
- Emax [2]: 104%
- EC50 [2]: 10 nM

SMILES: CCc1cc(C(=O)O)cc2sc(N3C(=O)[C@@H]4C[C@H]3C[C@H]4OCc3c(-c4c(Cl)cccc4Cl)noc3C3CC3)nc12 [Compound I-294, 2-[(1S,4R,5R)-5-{[5-cyclopropyl-3-(2,6-dichlorophenyl)-1,2-oxazol-4-yl]methoxy}-3-oxo-2-azabicyclo[2.2.1]heptan-2-yl]-4-ethyl-1,3-benzothiazole-6-carboxylic Acid]
- pEC50 [1]: 8.2
- Emax [1, 3]: 82%
- Emax [2]: 104%
- EC50 [2]: 2.51 nM

SMILES: O=C(O)c1cc(OC(F)(F)F)c2nc(N3C[C@@H]4C[C@H]3C[C@H]4OCc3c(-c4ccccc4C(F)(F)F)noc3C3CC3)sc2c1 [Compound I-20, 2-[(1S,4S,5R)-5-({5-cyclopropyl-3-[2-(trifluoromethyl)phenyl]-1,2-oxazol-4-yl}methoxy)-2-azabicyclo[2.2.1]heptan-2-yl]-4-(trifluoromethoxy)-1,3-benzothiazole-6-carboxylic Acid]
- pEC50 [1]: 8.4
- Emax [1, 3]: 191%
- Emax [2]: 113%
- EC50 [2]: 0.631 nM

Source: patent publication US10793568B2, “Hormone receptor modulators for treating metabolic conditions and disorders” (ARDELYX, INC., priority 2016, dated 2020)
